One series relates to mice. Briefly: Acute toxicity in mice, subcutaneous. The class given is in vivo.
For series [1], the target named is T1, Lactamase, Enterobacter P99 (Enterobacter cloacae, UniProt P05364).
T1 construct: Source of; endogenous in cells; host or cells: Enterobacter (cloacae) strain P99
Briefly: Lactamase inhibition, enzyme from Enterobacter P99. It counts as biochemical. To be noted: source of enzyme Enterobacter P99; read-out: Lactamase inhibition I50 (converted).

In series [2] the target is T2, Lactamase, Staph. aureus Russell (Staphylococcus aureus, UniProt P00807).
T2 construct: Source of; endogenous in cells; host or cells: Staphylococcus aureus strain Russell
The experiment in a line: Lactamase inhibition, enzyme from Staph. aureus Russell. The note with it: source of enzyme Staph. aureus Russell; read-out: Lactamase inhibition I50 (converted). The class given is biochemical.

For series [3], the target named is T3, Lactamase, Pseudomonas aerogenosa Dalgleish (Pseudomonas aeruginosa, UniProt P16897).
T3 construct: Source of; endogenous in cells; host or cells: Pseudomonas aeruginosa strain Dalgleish
The experiment in a line: Lactamase inhibition, enzyme from Pseudomonas aerogenosa Dalgleish. The class given is biochemical. To be noted: source of enzyme Pseudomonas aerogenosa Dalgleish; read-out: Lactamase inhibition I50 (converted).

Series [4] addresses Lactamase, Proteus mirabilis C889. The experiment in a line: Lactamase inhibition, enzyme from Proteus mirabilis C889. The class given is biochemical. To be noted: source of enzyme Proteus mirabilis C889.
Series [5] has as its target Lactamase, Kleb. aerogenes E70. Briefly: Lactamase inhibition, enzyme from Kleb. aerogenes E70. It counts as biochemical. The note with it: source of enzyme Kleb. aerogenes E70.
The target of a further series is T4, Lactamase, E. coli JT 4 (Escherichia coli, UniProt P62593).
T4 construct: Source of; endogenous in cells; host or cells: Escherichia coli strain JT 4
Briefly: Lactamase inhibition, enzyme from E. coli JT 4. It counts as biochemical. To be noted: source of enzyme E. coli JT 4; read-out: Lactamase inhibition I50 (converted).

For series [6], the system named is Staphylococcus aureus Russell. Briefly: Effect on MIC of ampicillin against β-lactamase producing bacteria, Staphylococcus aureus Russell. It counts as cell-based. To be noted: ampicillin alone, Staph. aureus Russell. The method, then:
(§1) a. Compounds of this invention were tested by conventional methods to determine their effect on the MIC (minimum inhibitory concentration) values of ampicillin against certain β-lactamase producing bacteria. The results for the compounds of the formula [drawing 124] were as follows: […]

For another series, the system named is Klebsiella aerogenes E70. Briefly: Effect on MIC of ampicillin against β-lactamase producing bacteria, Klebsiella E 70. The class given is cell-based. To be noted: ampicillin alone. The procedure:
as §1

T2 sequence (P00807 25-281): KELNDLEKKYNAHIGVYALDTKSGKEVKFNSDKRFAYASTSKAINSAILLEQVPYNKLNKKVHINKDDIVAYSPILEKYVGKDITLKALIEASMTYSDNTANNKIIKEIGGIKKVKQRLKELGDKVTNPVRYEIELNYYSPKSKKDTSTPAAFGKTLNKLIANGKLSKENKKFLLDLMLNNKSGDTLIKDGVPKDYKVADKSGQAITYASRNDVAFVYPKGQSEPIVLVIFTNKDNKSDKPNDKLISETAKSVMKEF
T3 sequence (P16897 18-288): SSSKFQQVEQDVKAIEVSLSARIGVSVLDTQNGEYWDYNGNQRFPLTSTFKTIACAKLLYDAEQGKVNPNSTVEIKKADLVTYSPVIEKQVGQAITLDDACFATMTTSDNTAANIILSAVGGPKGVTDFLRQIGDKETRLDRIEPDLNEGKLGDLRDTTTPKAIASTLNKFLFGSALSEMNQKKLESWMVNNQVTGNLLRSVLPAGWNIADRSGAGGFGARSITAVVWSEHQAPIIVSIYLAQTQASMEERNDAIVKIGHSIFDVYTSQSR
T4 sequence (P62593 24-286 limits assumed): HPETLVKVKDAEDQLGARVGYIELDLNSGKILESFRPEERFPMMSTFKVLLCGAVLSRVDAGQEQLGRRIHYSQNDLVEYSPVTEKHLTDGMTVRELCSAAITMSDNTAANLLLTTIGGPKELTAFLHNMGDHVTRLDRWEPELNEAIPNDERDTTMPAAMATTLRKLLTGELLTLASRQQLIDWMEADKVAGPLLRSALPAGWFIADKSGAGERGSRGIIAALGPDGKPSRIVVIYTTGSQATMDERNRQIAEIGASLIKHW
T1 sequence (P05364 21-381): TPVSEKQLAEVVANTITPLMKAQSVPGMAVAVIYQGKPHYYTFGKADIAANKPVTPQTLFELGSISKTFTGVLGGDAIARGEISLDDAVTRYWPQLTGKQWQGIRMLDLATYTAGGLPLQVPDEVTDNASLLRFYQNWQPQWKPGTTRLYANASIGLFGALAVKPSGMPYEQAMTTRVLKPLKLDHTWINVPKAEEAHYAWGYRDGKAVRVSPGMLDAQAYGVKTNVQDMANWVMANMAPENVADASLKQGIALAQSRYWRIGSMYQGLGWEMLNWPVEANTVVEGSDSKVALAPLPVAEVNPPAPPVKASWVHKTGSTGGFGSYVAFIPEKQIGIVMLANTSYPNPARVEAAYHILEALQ

As to `O=C(O)[C@H]1/C(=C/c2ccccc2)O[C@@H]2CC(=O)N21` (relative stereo) [Z1=CO2 Na, Z2=H, Z3=C6 H5, Sodium (Z)-(2RS,5RS)-(3-benzylidene)-7-oxo-4-oxa-1-azabicyclo[3,2,0]-heptane-2-carboxylate], the “deaths in a group of mice” value with mice (subcutaneously at 1000 mg/kg) is “did not cause any deaths”.
As for `C[C@@H](NC(=O)/C=C1\CN2C(=O)C[C@H]2O1)c1ccccc1` [Example 5-R-epimer, (E)-5-R-3-[N-(R-1-Phenylethyl)carbamoylmethylene]-4-oxa-1-azabicyclo [3.2.0]heptan-7-one], the IC50 in series [1] was 1.47 µM; in series [2], 0.918 µM; in series [3], 2.39 µM; at Lactamase, E. coli JT 4 it was 1.47 µM. The “Lactamase inhibition I50” value in series [4] amounted to 0.6 µg/mL; in series [5], 2.4 µg/mL.
Turning to `C[C@@H](NC(=O)/C=C1\CN2C(=O)C[C@@H]2O1)c1ccccc1` [Example 5-S-epimer, (E)-5-S-[N-(R-1-Phenylethyl)carbamoylmethylene]-4-oxa-1-azabicyclo[3.2.0]heptan-7-one], the IC50 is 4.41 µM in series [1]; 47.7 µM in series [2]; 64.6 µM in [3]; 21.3 µM on Lactamase, E. coli JT 4. The “Lactamase inhibition I50” value was 8.8 µg/mL in [4] and greater than 40 µg/mL in [5].
`O=C(O)/C(=C1\CN2C(=O)CC2O1)c1ccccc1` (stereo not shown) [Z1=H, Z2=CO2 Na, Z3=C6 H5, Sodium (E)-7-oxo-4-oxa-1-azabicyclo[3.2.0]heptane-3-(benzylidene-1-carboxylate)]: in the series with mice (subcutaneously at 250 mg/kg), the “deaths in a group of mice” value is recorded as “did not cause any deaths”.
In general, MIC refers to the least concentration at which growth counts as inhibited. With `CC1(C)S[C@@H]2[C@H](NC(=O)[C@H](N)c3ccccc3)C(=O)N2[C@H]1C(=O)O` [ampicillin], the MIC in series [6] is 250 µg/mL; in the series with Klebsiella aerogenes E70, greater than 2000 µg/mL.

The values above are taken from patent US4206120A, “Oxaazabicycloheptane antibiotics” (Beecham Group Limited, priority 1976, dated 1980).
